Data published in ChEMBL document CHEMBL4715878 (J Med Chem, 2020).
pIC50: −log10 of the molar value.

Assays:
BT-474 = test: Antiproliferative activity against human BT474 cells assessed as reduction in cell viability incubated for 72 hrs by WST8 assay; type: functional, cell-based; conditions: BT-474, 72 h
AU565 = test: Antiproliferative activity against human AU565 cells assessed as reduction in cell viability incubated for 72 hrs by WST8 assay; type: functional, cell-based; conditions: AU565, 72 h
[1] = molecular target: T1, Receptor tyrosine-protein kinase erbB-2 (Homo sapiens, UniProt P04626); conditions: Sf9, human, 0.5 h
T1 sequence (P04626 whole entry): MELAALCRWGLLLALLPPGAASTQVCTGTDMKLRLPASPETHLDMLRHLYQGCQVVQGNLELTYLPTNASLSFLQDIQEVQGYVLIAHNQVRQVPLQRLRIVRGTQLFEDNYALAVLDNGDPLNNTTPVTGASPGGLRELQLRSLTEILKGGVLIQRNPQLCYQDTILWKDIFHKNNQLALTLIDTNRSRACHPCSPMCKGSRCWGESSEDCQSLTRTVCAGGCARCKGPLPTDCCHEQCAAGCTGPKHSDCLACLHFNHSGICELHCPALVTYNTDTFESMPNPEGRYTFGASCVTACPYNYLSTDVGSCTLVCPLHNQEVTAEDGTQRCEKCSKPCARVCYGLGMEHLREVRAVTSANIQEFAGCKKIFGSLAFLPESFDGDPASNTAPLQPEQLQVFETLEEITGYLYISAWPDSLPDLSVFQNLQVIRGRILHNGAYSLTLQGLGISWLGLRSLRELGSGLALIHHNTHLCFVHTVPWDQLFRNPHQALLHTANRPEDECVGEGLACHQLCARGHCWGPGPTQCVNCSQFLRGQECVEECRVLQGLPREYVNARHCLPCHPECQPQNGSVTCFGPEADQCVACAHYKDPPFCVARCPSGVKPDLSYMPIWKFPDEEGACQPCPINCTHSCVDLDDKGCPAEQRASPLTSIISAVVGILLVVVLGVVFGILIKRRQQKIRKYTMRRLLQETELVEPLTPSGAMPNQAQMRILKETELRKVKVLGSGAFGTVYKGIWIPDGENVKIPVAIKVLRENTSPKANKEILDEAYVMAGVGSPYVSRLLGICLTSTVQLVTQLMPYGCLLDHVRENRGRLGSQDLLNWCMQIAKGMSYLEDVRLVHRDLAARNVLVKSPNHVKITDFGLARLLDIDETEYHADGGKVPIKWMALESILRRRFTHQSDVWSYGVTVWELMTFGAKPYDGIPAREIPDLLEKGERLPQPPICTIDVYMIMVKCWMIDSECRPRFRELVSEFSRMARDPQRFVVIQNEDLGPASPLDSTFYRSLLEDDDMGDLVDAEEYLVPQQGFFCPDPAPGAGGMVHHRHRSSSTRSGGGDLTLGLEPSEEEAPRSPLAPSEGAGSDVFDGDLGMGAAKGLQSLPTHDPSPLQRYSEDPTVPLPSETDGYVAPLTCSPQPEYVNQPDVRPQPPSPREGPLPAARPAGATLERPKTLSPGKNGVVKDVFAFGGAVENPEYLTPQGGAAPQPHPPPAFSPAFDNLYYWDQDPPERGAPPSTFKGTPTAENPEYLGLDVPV

MCF7 [2] = test: Antiproliferative activity against human MCF7 cells assessed as reduction in cell viability incubated for 72 hrs by WST8 assay; type: functional, cell-based; conditions: MCF7, 72 h
MDA-MB-231 = test: Antiproliferative activity against human MDA-MB-231 cells assessed as reduction in cell viability incubated for 72 hrs by WST8 assay; type: functional, cell-based; conditions: MDA-MB-231, 72 h
[3] = molecular target: Platelet-derived growth factor receptor alpha (Homo sapiens, UniProt P16234); test: Effect on human recombinant N-terminal GST-tagged PDGFRalpha (550 to end residues) expressed in baculovirus infected Sf9 insect cells in presence of substrate and [gamma-32ATP] at 10 uM incubated for 30 mins by scintillation counting based radiometry assay relative to control; conditions: 0.5 h, read-out: Activity
Platelet-derived growth factor receptor alpha, sequence (P16234 whole entry): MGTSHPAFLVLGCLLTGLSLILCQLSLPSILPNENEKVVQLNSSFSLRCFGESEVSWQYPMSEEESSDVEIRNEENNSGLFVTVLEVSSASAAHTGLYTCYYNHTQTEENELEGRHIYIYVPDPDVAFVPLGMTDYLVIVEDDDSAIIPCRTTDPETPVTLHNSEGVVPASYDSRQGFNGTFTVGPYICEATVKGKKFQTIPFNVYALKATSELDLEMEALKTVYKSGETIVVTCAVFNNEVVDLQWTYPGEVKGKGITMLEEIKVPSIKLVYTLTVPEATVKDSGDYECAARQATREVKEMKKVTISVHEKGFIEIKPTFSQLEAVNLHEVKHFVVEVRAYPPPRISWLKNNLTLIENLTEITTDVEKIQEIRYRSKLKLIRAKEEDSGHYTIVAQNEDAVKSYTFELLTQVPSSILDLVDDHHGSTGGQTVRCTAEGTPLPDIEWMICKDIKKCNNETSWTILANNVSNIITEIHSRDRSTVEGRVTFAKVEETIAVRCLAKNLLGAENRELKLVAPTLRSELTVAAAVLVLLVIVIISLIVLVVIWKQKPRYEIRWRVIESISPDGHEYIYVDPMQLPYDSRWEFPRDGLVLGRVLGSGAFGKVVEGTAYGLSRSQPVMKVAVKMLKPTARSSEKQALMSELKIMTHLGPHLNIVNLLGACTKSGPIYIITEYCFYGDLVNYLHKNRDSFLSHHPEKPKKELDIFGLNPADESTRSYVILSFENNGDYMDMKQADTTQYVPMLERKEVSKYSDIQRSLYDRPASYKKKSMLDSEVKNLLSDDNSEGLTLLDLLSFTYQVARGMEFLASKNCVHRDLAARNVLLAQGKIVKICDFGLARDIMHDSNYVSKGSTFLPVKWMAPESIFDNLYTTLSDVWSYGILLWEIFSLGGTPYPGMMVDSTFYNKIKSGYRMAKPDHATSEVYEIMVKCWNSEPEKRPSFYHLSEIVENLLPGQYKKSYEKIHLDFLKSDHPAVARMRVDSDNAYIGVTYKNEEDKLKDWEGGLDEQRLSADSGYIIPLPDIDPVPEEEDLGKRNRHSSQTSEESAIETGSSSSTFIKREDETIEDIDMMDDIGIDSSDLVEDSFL

[4] = molecular target: Receptor tyrosine-protein kinase erbB-4 (Homo sapiens, UniProt Q15303); test: Effect on human recombinant N-terminal GST-tagged HER4 (682 to 993) expressed in baculovirus infected Sf9 insect cells in presence of substrate and [gamma-32ATP] at 10 uM incubated for 30 mins by scintillation counting based radiometry assay relative to control; conditions: 0.5 h, read-out: Activity
Receptor tyrosine-protein kinase erbB-4, sequence (Q15303 whole entry): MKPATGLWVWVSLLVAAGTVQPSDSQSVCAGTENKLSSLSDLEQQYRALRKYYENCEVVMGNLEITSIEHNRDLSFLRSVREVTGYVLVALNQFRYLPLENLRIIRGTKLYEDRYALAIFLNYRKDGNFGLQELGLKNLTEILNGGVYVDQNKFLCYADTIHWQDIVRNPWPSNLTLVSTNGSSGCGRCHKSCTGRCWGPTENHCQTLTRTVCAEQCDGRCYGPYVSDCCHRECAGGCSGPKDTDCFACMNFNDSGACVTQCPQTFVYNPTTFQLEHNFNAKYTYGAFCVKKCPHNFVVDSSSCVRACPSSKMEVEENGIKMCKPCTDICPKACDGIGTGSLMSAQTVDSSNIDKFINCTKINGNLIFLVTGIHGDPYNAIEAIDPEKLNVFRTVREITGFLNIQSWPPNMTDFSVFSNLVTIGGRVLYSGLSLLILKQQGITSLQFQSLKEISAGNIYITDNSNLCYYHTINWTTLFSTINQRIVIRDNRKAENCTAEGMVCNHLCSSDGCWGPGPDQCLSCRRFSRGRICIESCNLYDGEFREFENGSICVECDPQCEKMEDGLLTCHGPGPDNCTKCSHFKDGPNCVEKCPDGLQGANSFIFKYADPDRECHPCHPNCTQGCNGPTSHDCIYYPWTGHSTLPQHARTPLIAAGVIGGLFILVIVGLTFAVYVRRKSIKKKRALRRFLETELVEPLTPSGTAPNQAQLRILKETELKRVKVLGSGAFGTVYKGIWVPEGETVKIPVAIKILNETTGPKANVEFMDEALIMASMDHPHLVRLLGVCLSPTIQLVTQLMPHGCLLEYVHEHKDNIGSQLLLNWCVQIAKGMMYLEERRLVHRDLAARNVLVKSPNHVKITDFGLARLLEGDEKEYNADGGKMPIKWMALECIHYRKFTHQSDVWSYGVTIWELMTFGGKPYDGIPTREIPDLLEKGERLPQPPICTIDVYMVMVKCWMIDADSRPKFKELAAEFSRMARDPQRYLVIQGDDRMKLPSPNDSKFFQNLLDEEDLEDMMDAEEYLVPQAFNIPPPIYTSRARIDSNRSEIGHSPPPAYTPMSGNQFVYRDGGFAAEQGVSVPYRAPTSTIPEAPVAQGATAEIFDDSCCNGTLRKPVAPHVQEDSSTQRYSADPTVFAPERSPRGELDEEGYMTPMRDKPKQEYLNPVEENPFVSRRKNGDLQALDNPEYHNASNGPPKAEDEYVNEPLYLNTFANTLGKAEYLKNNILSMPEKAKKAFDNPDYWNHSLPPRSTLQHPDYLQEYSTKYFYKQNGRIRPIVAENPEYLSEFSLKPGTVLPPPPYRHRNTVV

MCF7 [5] = test: Potency index, ratio of lapatinib IC50 to test compound IC50 for antiproliferative activity against human MCF7 cells; type: functional
MDA-MB-468 [6] = test: Antiproliferative activity against human MDA-MB-468 cells assessed as cell growth inhibition at 10 uM after 48 hrs by SRB assay relative to control; type: functional; conditions: read-out: GI
MCF7 [7] = test: Antiproliferative activity against human MCF7 cells assessed as lethality at 10 uM after 48 hrs by SRB assay relative to control; type: functional
[8] = Antiproliferative activity against human BC assessed as lethality at 10 uM after 48 hrs by SRB assay relative to control; type: functional
[9] = Antiproliferative activity against human BC assessed as cell growth inhibition at 10 uM after 48 hrs by SRB assay relative to control; type: functional; conditions: read-out: GI
[10] = system: Panel NCI-60 (60 carcinoma cell lines); test: Antiproliferative activity against human NCI60 cells assessed as mean cell growth at 10 uM after 48 hrs by SRB assay relative to control; type: functional
[11] = system: Panel NCI-60 (60 carcinoma cell lines); test: Antiproliferative activity against human NCI60 cells assessed as lethality at 10 uM after 48 hrs by SRB assay relative to control; type: functional
MDA-MB-468 [12] = test: Antiproliferative activity against human MDA-MB-468 cells assessed as lethality at 10 uM after 48 hrs by SRB assay relative to control; type: functional
MDA-MB-468 [13] = test: Antiproliferative activity against human MDA-MB-468 cells assessed as cell growth inhibition after 48 hrs by SRB assay; type: functional
[14] = Antiproliferative activity against human MDA-MB-231 cells assessed as lethality at 10 uM after 48 hrs by SRB assay relative to control; type: functional, MDA-MB-23
[15] = molecular target: Epidermal growth factor receptor (Homo sapiens, UniProt P00533); conditions: 0.5 h
Epidermal growth factor receptor, sequence (P00533 whole entry): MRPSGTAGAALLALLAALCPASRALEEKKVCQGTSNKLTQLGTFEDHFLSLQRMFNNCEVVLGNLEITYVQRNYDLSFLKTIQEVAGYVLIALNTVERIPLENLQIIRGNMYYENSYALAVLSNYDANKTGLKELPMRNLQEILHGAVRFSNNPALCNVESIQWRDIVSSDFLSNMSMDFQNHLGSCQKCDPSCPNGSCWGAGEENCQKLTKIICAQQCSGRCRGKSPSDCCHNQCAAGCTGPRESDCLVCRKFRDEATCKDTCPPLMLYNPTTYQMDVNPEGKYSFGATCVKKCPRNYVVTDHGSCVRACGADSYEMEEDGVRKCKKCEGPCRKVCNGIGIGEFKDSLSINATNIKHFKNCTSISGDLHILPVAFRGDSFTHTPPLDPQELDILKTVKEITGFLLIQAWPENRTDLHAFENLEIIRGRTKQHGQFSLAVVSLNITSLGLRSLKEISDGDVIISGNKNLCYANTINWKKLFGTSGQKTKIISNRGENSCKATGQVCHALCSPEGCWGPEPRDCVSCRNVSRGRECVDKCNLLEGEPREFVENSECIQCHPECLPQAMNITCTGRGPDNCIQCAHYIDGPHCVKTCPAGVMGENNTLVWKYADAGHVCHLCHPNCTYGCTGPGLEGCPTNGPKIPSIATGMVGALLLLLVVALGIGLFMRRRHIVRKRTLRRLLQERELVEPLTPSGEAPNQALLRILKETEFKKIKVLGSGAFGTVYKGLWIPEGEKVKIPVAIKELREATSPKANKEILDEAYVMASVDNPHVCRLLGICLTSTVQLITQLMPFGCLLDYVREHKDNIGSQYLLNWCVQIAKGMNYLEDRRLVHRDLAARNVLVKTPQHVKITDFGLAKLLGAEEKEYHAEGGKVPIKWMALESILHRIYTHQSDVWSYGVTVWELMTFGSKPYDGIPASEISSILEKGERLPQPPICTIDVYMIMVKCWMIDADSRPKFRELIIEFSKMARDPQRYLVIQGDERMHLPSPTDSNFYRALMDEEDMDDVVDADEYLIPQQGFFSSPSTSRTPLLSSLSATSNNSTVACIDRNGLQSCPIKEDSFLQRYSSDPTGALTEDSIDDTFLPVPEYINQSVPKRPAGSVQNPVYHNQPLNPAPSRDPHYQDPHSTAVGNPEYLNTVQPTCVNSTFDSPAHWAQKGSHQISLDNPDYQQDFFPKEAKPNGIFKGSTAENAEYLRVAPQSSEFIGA
Description: Effect on human EGFR in presence of substrate and [gamma-32ATP] at 10 uM incubated for 30 mins by scintillation counting based radiometry assay relative to control

[16] = molecular target: T1, Receptor tyrosine-protein kinase erbB-2; test: Inhibition of HER2 (unknown origin) in presence of substrate incubated for 30 mins by ADP-Glo assay
[17] = molecular target: T1, Receptor tyrosine-protein kinase erbB-2; test: Inhibition of wild-type HER2 (unknown origin) at 0.5 nM in presence of substrate incubated for 30 mins by ADP-Glo assay relative to control
in vitro [18] = conditions: CD-1, mouse, liver microsomes
in vitro [19] = conditions: CD-1, mouse, microsomes
in vitro [20] = conditions: CD-1, mouse, liver microsomes; remark: listed apart in the source
Description: Metabolic stability in CD-1 mouse liver microsomes assessed as parent compound remaining at 100 uM measured after 60 mins in presence of NADPH by LC-MS/MS analysis

in vitro [21] = conditions: CD-1, mouse, liver microsomes; remark: listed apart in the source
Description: Metabolic stability in CD-1 mouse liver microsomes assessed as parent compound remaining at 100 uM measured after 60 mins by LC-MS/MS analysis

in vitro [22] = conditions: CD-1, mouse, liver microsomes; remark: listed apart in the source

Structure (SMILES)	pIC50 (BT-474)	pIC50 (AU565)	pIC50 (MCF7 [2])	pIC50 (MDA-MB-231)	activity at 10 µM [3]	activity at 10 µM [4]	also measured
CS(=O)(=O)CCNCc1ccc(-c2ccc3ncnc(Nc4ccc(OCc5cccc(F)c5)c(Cl)c4)c3c2)o1 [LAPATINIB]	7.19	7.19	5.20	4.98	56%	-99%	activity at 10 µM [1]: -52%
CN1CCN(Cc2ccc(C(=O)Nc3ccc4ncnc(Nc5ccc(Oc6cccc(F)c6)c(Cl)c5)c4c3)cc2)CC1	6.30	6.12	5.79	5.72	–	–	Ratio IC50 (MCF7 [5]): <=20
O=C(Nc1ccc2ncnc(Nc3ccc(Oc4cccc(F)c4)c(Cl)c3)c2c1)c1ccc(CN2CCOCC2)cc1	6.27	6.03	5.21	4.94	–	–	–
CNC(=O)c1cc(Oc2ccc(NC(=O)Nc3ccc(Cl)c(C(F)(F)F)c3)cc2)ccn1 [SORAFENIB]	–	–	–	–	-55%	-60%	–
CCN(CC)CCCOc1ccc2ncnc(Nc3ccc(Oc4cccc(C(F)(F)F)c4)c(Cl)c3)c2c1	6.67	6.54	5.80	5.86	–	–	inhibition of growth at 10 µM (MDA-MB-468 [6]): 18.8%; Activity (MCF7 [7]): 11.7%; Ratio IC50 (MCF7 [5]): <=20; Activity [8]: <=78.7%; inhibition of growth at 10 µM [9]: ≤ 78.7%; Activity [10]: 11.85%; Activity [11]: 1.3%; Activity (MDA-MB-468 [12]): 11.7%; GI50 (MDA-MB-468 [13]): 900 nM; Activity [14]: 11.7%
CN(C)Cc1ccc(C(=O)Nc2ccc3ncnc(Nc4ccc(Oc5cccc(F)c5)c(Cl)c4)c3c2)cc1	6.47	6.65	5.58	5.30	–	–	inhibition of growth at 10 µM (MDA-MB-468 [6]): 18.8%; Activity (MCF7 [7]): 11.7%; Activity [8]: <=78.7%; inhibition of growth at 10 µM [9]: ≤ 78.7%; Activity [10]: 11.85%; Activity [11]: 1.3%; Activity (MDA-MB-468 [12]): 11.7%; Activity [14]: 11.7%
CN(C)CC(=O)Nc1ccc2ncnc(Nc3ccc(Oc4cccc(C(F)(F)F)c4)c(Cl)c3)c2c1	6.32	6.39	5.29	5.58	–	–	–
O=C(CNCCO)Nc1ccc2ncnc(Nc3ccc(OCc4cccc(F)c4)c(Cl)c3)c2c1	6.62	6.66	5.06	5.06	54%	-98%	activity at 10 µM [1]: -93%; activity at 10 µM [15]: -78%; pIC50 [16]: 7.98; inhibition [17]: 3%
O=C(CN1CCOCC1)Nc1ccc2ncnc(Nc3ccc(Oc4cccc(C(F)(F)F)c4)c(Cl)c3)c2c1	6.53	6.44	4.95	5.05	82%	-94%	activity at 10 µM [1]: -91%; activity at 10 µM [15]: -71%
FC(F)(F)c1cccc(Oc2ccc(Nc3ncnc4ccc(OCCCN5CCOCC5)cc34)cc2Cl)c1	6.61	6.46	5.26	5.17	–	–	GI50 (MDA-MB-468 [13]): 500 nM
CN1CCN(CCCOc2ccc3ncnc(Nc4ccc(Oc5cccc(F)c5)c(Cl)c4)c3c2)CC1	6.66	6.38	6.04	5.77	–	–	inhibition of growth at 10 µM (MDA-MB-468 [6]): 18.8%; Ratio IC50 (MCF7 [5]): <=20; Activity [8]: <=78.7%; inhibition of growth at 10 µM [9]: ≤ 78.7%; Activity [10]: 11.85%; Activity [11]: 1.3%
C[C@]12CC[C@H]3[C@@H](CCC4=CC(=O)CC[C@@]43C)[C@@H]1CC[C@@H]2O [TESTOSTERONE]	–	–	–	–	–	–	CLint scaled at 1 h, 100 µM (in vitro [18]): 1110 mL/min/kg; microsomal CLint at 1 h, 100 µM (in vitro [19]): 279 µL/min/mg
CN1CCN(CCCOc2ccc3ncnc(Nc4ccc(Oc5cccc(C(F)(F)F)c5)c(Cl)c4)c3c2)CC1	6.70	6.35	5.77	5.97	115%	-99%	inhibition of growth at 10 µM (MDA-MB-468 [6]): 18.8%; activity at 10 µM [1]: -92%; activity at 10 µM [15]: -78%; Activity (MCF7 [7]): 18%; Ratio IC50 (MCF7 [5]): <=20; Activity [8]: <=78.7%; inhibition of growth at 10 µM [9]: ≤ 78.7%; Activity [10]: 11.85%; Activity [11]: 1.3%; Activity (MDA-MB-468 [12]): 18%; Activity [14]: 18%
Cc1cccc(Oc2ccc(Nc3ncnc4ccc(NC(=O)CN5CCOCC5)cc34)cc2Cl)c1	7.04	6.82	5.02	4.86	–	–	–
Fc1cccc(Oc2ccc(Nc3ncnc4ccc(OCCCN5CCOCC5)cc34)cc2Cl)c1	6.55	6.51	5.08	4.99	–	–	–
Fc1cccc(COc2ccc(Nc3ncnc4ccc(OCCCN5CCOCC5)cc34)cc2Cl)c1	7.09	6.83	5.21	5.14	–	–	–
CN1CCN(CC(=O)Nc2ccc3ncnc(Nc4ccc(Oc5cccc(C(F)(F)F)c5)c(Cl)c4)c3c2)CC1	6.43	6.36	5.68	5.59	–	–	inhibition of growth at 10 µM (MDA-MB-468 [6]): 18.8%; Activity (MCF7 [7]): 11.7%; Activity [8]: <=78.7%; inhibition of growth at 10 µM [9]: ≤ 78.7%; Activity [10]: 11.85%; Activity [11]: 1.3%; Activity (MDA-MB-468 [12]): 11.7%; Activity [14]: 11.7%
CCN(CC)CC(=O)Nc1ccc2ncnc(Nc3ccc(Oc4cccc(F)c4)c(Cl)c3)c2c1	6.27	6.16	5.25	5.41	–	–	–
CN1CCN(CC(=O)Nc2ccc3ncnc(Nc4ccc(Oc5cccc(F)c5)c(Cl)c4)c3c2)CC1	6.66	6.31	5.22	5.26	–	–	–
O=C(CN1CCOCC1)Nc1ccc2ncnc(Nc3ccc(OCc4cccc(F)c4)c(Cl)c3)c2c1	6.93	6.89	5.10	4.94	55%	-97%	activity at 10 µM [1]: -92%; activity at 10 µM [15]: -81%
OCCNCCCOc1ccc2ncnc(Nc3ccc(Oc4cccc(C(F)(F)F)c4)c(Cl)c3)c2c1	6.58	6.34	5.82	5.71	–	–	inhibition of growth at 10 µM (MDA-MB-468 [6]): 18.8%; Activity (MCF7 [7]): 18%; Ratio IC50 (MCF7 [5]): <=20; Activity [8]: <=78.7%; inhibition of growth at 10 µM [9]: ≤ 78.7%; Activity [10]: 11.85%; Activity [11]: 1.3%; Activity (MDA-MB-468 [12]): 18%; GI50 (MDA-MB-468 [13]): 600 nM; Activity [14]: 18%
O=C(O)Cc1ccccc1Nc1c(Cl)cccc1Cl [DICLOFENAC]	–	–	–	–	–	–	remaining at 1 h, 100 µM (in vitro [20]): 50.2%; remaining at 1 h, 100 µM (in vitro [21]): 102%; half-life at 1 h, 100 µM (in vitro [22]): 1 h; CLint scaled at 1 h, 100 µM (in vitro [18]): 91.5 mL/min/kg; microsomal CLint at 1 h, 100 µM (in vitro [19]): 23.1 µL/min/mg
O=C(CN1CCOCC1)Nc1ccc2ncnc(Nc3ccc(Oc4cccc(F)c4)c(Cl)c3)c2c1	6.43	6.26	4.74	4.52	18%	-97%	activity at 10 µM [1]: -92%; activity at 10 µM [15]: -67%
CCN(CC)CC(=O)Nc1ccc2ncnc(Nc3ccc(Oc4cccc(C)c4)c(Cl)c3)c2c1	6.58	6.66	5.57	5.55	–	–	–
Cc1cccc(Oc2ccc(Nc3ncnc4ccc(NC(=O)CN(C)C)cc34)cc2Cl)c1	6.87	6.81	5.57	5.35	–	–	GI50 (MDA-MB-468 [13]): 200 nM
Cc1cccc(Oc2ccc(Nc3ncnc4ccc(NC(=O)CNCCO)cc34)cc2Cl)c1	6.88	6.52	4.97	5.11	86%	-99%	activity at 10 µM [1]: -93%; activity at 10 µM [15]: -78%
